Earlier results as cited in PMC3187562 (ACS medicinal chemistry letters, 2011).

Key:
ΔF508-CFTR [1] = settings: Phase 2a clinical study, CF patients
ΔF508-CFTR [2] = settings: CF lung cell line expressing ΔF508-CFTR from a viral promoter

SMILES: Cc1ccc(NC(=O)C2(c3ccc4c(c3)OC(F)(F)O4)CC2)nc1-c1cccc(C(=O)O)c1 [VX-809]
- sweat chloride levels (key biomarker) (ΔF508-CFTR [1]): reduced sweat chloride levels

SMILES: CC(/C=C/C(=O)NO)=C\[C@@H](C)C(=O)c1ccc(N(C)C)cc1 [compound 1, trichostatin A]
- increase of ΔF508-CFTR mRNA levels (ΔF508-CFTR [2]): > 15 fold

SMILES: O=C(CCCCCCC(=O)Nc1ccccc1)NO [compound 2, vorinostat]
- increase of ΔF508-CFTR mRNA levels (ΔF508-CFTR [2]): > 15 fold
- increase of ΔF508-CFTR protein levels (ΔF508-CFTR [2]): 25 fold

SMILES: C/C=C1\NC(=O)[C@H]2CSSCC/C=C/[C@H](CC(=O)N[C@H](C(C)C)C(=O)N2)OC(=O)[C@H](C(C)C)NC1=O [romidepsin]
- expression of HDAC7 in treated cells (HDAC7): selectively down-regulated
